SMILES strings stand for the structures. Several values for one entry are separate records, joined by “and”; a condition that tells them apart may be missing. Equal entries are not always repeated. Inconclusive results and toxic doses are left out.

Drawing on PubChem BioAssay AID328 (DTP/NCI, 2004), this text covers T/C for 17 compounds.

The subject of this experiment is BDF1 mice, P388 leukemia ip, median survival T/C. The experiment can be described thus: NCI In Vivo Anticancer Drug Screen. Data for tumor model P388 Leukemia (intraperitoneal) in B6D2F1 (BDF1) mice. Particulars: endpoint: median survival time, higher = longer survival. Summed up:
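In tumour-bearing mice, survival after compound treatment is set against the vehicle group and given as a quotient.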

Setting [1] is: dose: 50.0 mg/kg/injection, schedule: Q01DX009 (ip), vehicle: saline with Tween-80.
Setting [2] is: dose: 100.0 mg/kg/injection, schedule: Q01DX009 (ip), vehicle: saline with Tween-80.
[3] abbreviates: dose: 200.0 mg/kg/injection, schedule: Q01DX009 (ip), vehicle: saline with Tween-80.
The mark [4] stands for this setting: dose: 50.0 mg/kg/injection, schedule: Q04DX003 (ip), vehicle: saline.
Where [5] appears, read: dose: 25.0 mg/kg/injection, schedule: Q01DX009 (ip), vehicle: saline with Tween-80.
[6] abbreviates: dose: 100.0 mg/kg/injection, schedule: Q04DX003 (ip), vehicle: saline with Tween-80.
Where [7] appears, read: dose: 200.0 mg/kg/injection, schedule: Q04DX003 (ip), vehicle: saline with Tween-80.
Where [8] appears, read: dose: 100.0 mg/kg/injection, schedule: Q01DX009 (ip), vehicle: Klucel (hydroxypropylcellulose) (HPC).
Where [9] appears, read: dose: 50.0 mg/kg/injection, schedule: Q01DX009 (ip), vehicle: Klucel (hydroxypropylcellulose) (HPC).

Take `O=C(/C=C/c1ccc(OCc2ccccc2)cc1)c1cccc(Br)c1`: the T/C reads like this: under setting [1], 89 % of control; under setting [2], 100 % of control; under setting [3], 91 % of control.

Regarding `C=CCC#N`, the T/C was 95 % of control (dose: 12.5 mg/kg/injection, schedule: Q01DX009 (ip), vehicle: saline); 95 % of control (dose: 25.0 mg/kg/injection, schedule: Q01DX009 (ip), vehicle: saline); 100 % of control (dose: 25.0 mg/kg/injection, schedule: Q04DX003 (ip), vehicle: saline); 95 % of control under setting [4].

For the compound `c1ccc(N=NC2=NN(c3ccccc3)CCS2)cc1`, the T/C is 116 % of control under setting [5], 105 % of control under setting [1] and 122 % of control under setting [2].

On to `NSc1ccc([N+](=O)[O-])cc1`, for which the T/C (dose: 100.0 mg/kg/injection, schedule: Q01DX001 (ip), vehicle: other) is 109 % of control.

As to `CC(=S)Nc1ccc2ccccc2c1`, the T/C is 107 % of control under setting [2]; 118 % of control under setting [6]; 107 % of control under setting [3]; 109 % of control under setting [7]; 119 % of control (dose: 400.0 mg/kg/injection, schedule: Q01DX009 (ip), vehicle: saline with Tween-80); 122 % of control (dose: 400.0 mg/kg/injection, schedule: Q04DX003 (ip), vehicle: saline with Tween-80).

As to `NC(Cc1ccc(Cl)cc1)C(=O)O` (stereo unspecified), the T/C is 90 % of control (dose: 200.0 mg/kg/injection, schedule: Q01DX010 (im), vehicle: other); 90 % of control (dose: 400.0 mg/kg/injection, schedule: Q01DX010 (im), vehicle: other); 90 % of control (dose: 600.0 mg/kg/injection, schedule: Q01DX010 (im), vehicle: other).

On to `O=C1CN(c2ccccc2)CC(=O)N2CCCN12`, for which the T/C runs as follows: (dose: 50.0 mg/kg/injection, schedule: Q01DX005 (ip), vehicle: saline with Tween-80) 92 % of control; (dose: 200.0 mg/kg/injection, schedule: Q01DX005 (ip), vehicle: saline with Tween-80) 88 % of control.

With `O=c1c[n+](-c2ccccc2)[nH]o1`, the T/C by setting is: under setting [8], 115 % of control; (dose: 200.0 mg/kg/injection, schedule: Q01DX009 (ip), vehicle: Klucel (hydroxypropylcellulose) (HPC)) 90 % of control.

Take `C=C1C(=O)OC2CC(C)C3CCC(=O)C3(C)C(O)C12` (stereo unspecified): the T/C was 90 % of control (dose: 4.0 mg/kg/injection, schedule: Q01DX009 (ip), vehicle: Klucel (hydroxypropylcellulose) (HPC)); 95 % of control (dose: 8.0 mg/kg/injection, schedule: Q01DX009 (ip), vehicle: Klucel (hydroxypropylcellulose) (HPC)); 104 % of control (dose: 16.0 mg/kg/injection, schedule: Q01DX009 (ip), vehicle: Klucel (hydroxypropylcellulose) (HPC)); 111 % of control (dose: 32.0 mg/kg/injection, schedule: Q01DX009 (ip), vehicle: Klucel (hydroxypropylcellulose) (HPC)).

For `O=S1(=O)CCN(C2CC2)CC1`, under setting [9], the T/C was 104 % of control.

Consider `COc1cc(NS(C)(=O)=O)ccc1Nc1c2cccc(C)c2nc2c(C)cccc12`, for which the T/C is, setting by setting: (dose: 1.57 mg/kg/injection, schedule: Q01DX009 (ip), vehicle: saline) 176 % of control; (dose: 3.13 mg/kg/injection, schedule: Q01DX009 (ip), vehicle: saline with Tween-80) 150 % of control; (dose: 3.13 mg/kg/injection, schedule: Q01DX009 (ip), vehicle: saline) 201 % of control; (dose: 6.25 mg/kg/injection, schedule: Q01DX009 (ip), vehicle: saline with Tween-80) 169 % of control; (dose: 12.5 mg/kg/injection, schedule: Q01DX009 (ip), vehicle: saline with Tween-80) 186 % of control; (dose: 14.6 mg/kg/injection, schedule: Q04DX003 (ip), vehicle: saline) 163 % of control. The T/C (dose: 22.0 mg/kg/injection, schedule: Q04DX003 (ip), vehicle: saline) is 163 % of control; the T/C under setting [5] is 231 % of control; the T/C (dose: 33.0 mg/kg/injection, schedule: Q04DX003 (ip), vehicle: saline) is 159 % of control; the T/C under setting [4] is 227 % of control; the T/C under setting [6] is 272 % of control; the T/C under setting [7] is 109 % of control.

For the compound `CN=C(N)c1ccc(N=C(N)c2ccc(N=C(N)c3ccc(C(N)=NC)cc3)cc2)cc1`, the T/C was 104 % of control (dose: 10.0 mg/kg/injection, schedule: Q04DX003 (ip), vehicle: saline); 104 % of control (dose: 20.0 mg/kg/injection, schedule: Q04DX003 (ip), vehicle: saline); 116 % of control (dose: 40.0 mg/kg/injection, schedule: Q04DX003 (ip), vehicle: saline).

For `CCCCCCCCCC(O)CCC` (stereo unspecified), the T/C is, setting by setting: (dose: 100.0 mg/kg/injection, schedule: Q04DX003 (ip), vehicle: Klucel (hydroxypropylcellulose) (HPC)) 95 % of control; (dose: 200.0 mg/kg/injection, schedule: Q04DX003 (ip), vehicle: Klucel (hydroxypropylcellulose) (HPC)) 95 % of control; (dose: 400.0 mg/kg/injection, schedule: Q04DX003 (ip), vehicle: Klucel (hydroxypropylcellulose) (HPC)) 95 % of control.

`CC[C@]12CN3CCc4c([nH]c5ccccc45)[C@@](C(=O)OC)(c4cc5c(cc4OC)N(C)[C@H]4[C@@](O)(C(=O)OC)[C@H](OC(C)=O)[C@]6(CC)C=CCN7CC[C@]54[C@@H]76)CC(C3)[C@H]1O2` (stereo partly specified): the T/C (dose: 0.5 mg/kg/injection, schedule: Q01DX009 (ip), vehicle: saline) was 155 % of control; the T/C (dose: 1.0 mg/kg/injection, schedule: Q01DX009 (ip), vehicle: saline) is 160 % of control; the T/C (dose: 1.5 mg/kg/injection, schedule: Q01DX009 (ip), vehicle: Klucel (hydroxypropylcellulose) (HPC)) was 124 % of control; the T/C (dose: 3.0 mg/kg/injection, schedule: Q01DX009 (ip), vehicle: Klucel (hydroxypropylcellulose) (HPC)) is 162 % of control; the T/C (dose: 3.0 mg/kg/injection, schedule: Q01DX009 (ip), vehicle: saline) is 180 % of control; the T/C (dose: 3.9 mg/kg/injection, schedule: Q01DX009 (ip), vehicle: saline) was 160 % of control. The T/C was 170 % of control and 171 % of control (dose: 6.0 mg/kg/injection, schedule: Q01DX009 (ip), vehicle: Klucel (hydroxypropylcellulose) (HPC)); 225 % of control (dose: 6.0 mg/kg/injection, schedule: Q01DX009 (ip), vehicle: saline with Tween-80); 234 % of control and 200 % of control (dose: 6.0 mg/kg/injection, schedule: Q01DX009 (ip), vehicle: saline); 95 % of control (dose: 9.0 mg/kg/injection, schedule: Q01DX009 (ip), vehicle: saline with Tween-80); 252 % of control (dose: 9.0 mg/kg/injection, schedule: Q01DX009 (ip), vehicle: saline); 186 % of control and 216 % of control (dose: 12.0 mg/kg/injection, schedule: Q01DX009 (ip), vehicle: Klucel (hydroxypropylcellulose) (HPC)). Besides, the T/C is, setting by setting: (dose: 12.0 mg/kg/injection, schedule: Q01DX009 (ip), vehicle: saline) 240 % of control; (dose: 5.0 micrograms/kg/injection, schedule: Q01DX009 (ip), vehicle: saline) 104 % of control; (dose: 10.0 micrograms/kg/injection, schedule: Q01DX009 (ip), vehicle: saline) 109 % of control; (dose: 30.0 micrograms/kg/injection, schedule: Q01DX009 (ip), vehicle: saline) 109 % of control; (dose: 60.0 micrograms/kg/injection, schedule: Q01DX009 (ip), vehicle: saline) 100 % of control; (dose: 120.0 micrograms/kg/injection, schedule: Q01DX009 (ip), vehicle: saline) 95 % of control.

`CC1(C)OC(CI)C(COS(C)(=O)=O)O1` (stereo unspecified): the T/C runs as follows: under setting [1], 100 % of control; under setting [2], 91 % of control; under setting [3], 112 % of control.

For the compound `Clc1nc(Cl)nc(-c2cccn2-c2ccccc2)n1`, the T/C is 100 % of control (dose: 25.0 mg/kg/injection, schedule: Q01DX009 (ip), vehicle: Klucel (hydroxypropylcellulose) (HPC)); 100 % of control under setting [9]; 104 % of control under setting [8]; 105 % of control (dose: 150.0 mg/kg/injection, schedule: Q01DX009 (ip), vehicle: Klucel (hydroxypropylcellulose) (HPC)); 95 % of control (dose: 225.0 mg/kg/injection, schedule: Q01DX009 (ip), vehicle: Klucel (hydroxypropylcellulose) (HPC)).

As to `NC(=O)c1ncc[nH]c1=O`, the T/C is 100 % of control (dose: 50.0 mg/kg/injection, schedule: Q04DX003 (ip), vehicle: saline with Tween-80); 100 % of control under setting [6]; 105 % of control under setting [7].
